Measurements taken from patent US4698327A, “Novel glycopeptide derivatives” (priority 1986, dated 1987).
In brackets after ≈: the same amount, converted by molar mass.

Assays:
[1] = test system: Staphylococcus aureus V41; test: MIC, standard agar-dilution assay; format: cell-based
[2] = test system: Staphylococcus aureus X400; test: MIC, standard agar-dilution assay; format: cell-based
[3] = test system: Staphylococcus aureus S13E; format: cell-based; details: agar dilution
[4] = test system: Staphylococcus epidermidis EPI1; format: cell-based; details: agar dilution
[5] = test system: Staphylococcus epidermidis 222; test: MIC, standard agar-dilution assay; format: cell-based
[6] = test system: Streptococcus pyogenes C203; test: MIC, standard agar-dilution assay; format: cell-based
[7] = test system: Streptococcus pneumoniae Park 1; format: cell-based; details: agar dilution
[8] = test system: Streptococcus faecium ATCC 9790; test: MIC, standard agar-dilution assay; format: cell-based
[9] = test system: Streptococcus sp. group D 2041; test: MIC, standard agar-dilution assay; format: cell-based
[10] = test system: Haemophilus influenzae C.L.; test: MIC, standard agar-dilution assay; format: cell-based
[11] = test system: Haemophilus influenzae 76; test: MIC, standard agar-dilution assay; format: cell-based
[12] = test system: Escherichia coli N10; test: MIC, standard agar-dilution assay; format: cell-based
[13] = test system: Escherichia coli EC14; test: MIC, standard agar-dilution assay; format: cell-based
[14] = test system: Escherichia coli TEM; test: MIC, standard agar-dilution assay; format: cell-based
[15] = test system: Klebsiella pneumoniae X26; test: MIC, standard agar-dilution assay; format: cell-based
[16] = test system: Klebsiella pneumoniae X68; test: MIC, standard agar-dilution assay; format: cell-based
[17] = test system: Klebsiella pneumoniae KAE; test: MIC, standard agar-dilution assay; format: cell-based
[18] = test system: Staphylococcus aureus NRRL B313; details: agar dilution
[19] = test system: Staphylococcus aureus; details: Staphylococcus aureus infection in mice; two doses, administered subcutaneously
[20] = test system: Streptococcus pyogenes; details: Streptococcus pyogenes infection in mice; two doses, administered subcutaneously
[21] = test system: Streptococcus pneumoniae; details: Streptococcus pneumoniae infection in mice; two doses, administered subcutaneously

Row | Structure (SMILES) | MIC [1] [µg/mL] | MIC [2] [µg/mL] | MIC [3] [µg/mL] | MIC [4] [µg/mL] | MIC [5] [µg/mL] | MIC [6] [µg/mL] | MIC [7] [µg/mL] | MIC [8] [µg/mL] | MIC [9] [µg/mL] | MIC [10] [µg/mL] | MIC [11] [µg/mL] | MIC [12] [µg/mL] | MIC [13] [µg/mL] | MIC [14] [µg/mL] | MIC [15] [µg/mL] | MIC [16] [µg/mL] | MIC [17] [µg/mL] | MIC [18] [µg/mL] | ED50 [19] [mg/kg/2] | ED50 [20] [mg/kg/2] | other results
1 | CCCCc1ccc(CNC2(C)CC(OC3C(Oc4c5cc6cc4Oc4ccc(cc4Cl)C(O)C4NC(=O)C(NC(=O)C6NC(=O)C(CC(N)=O)NC(=O)C(NC(=O)C(CC(C)C)NC)C(O)c6ccc(c(Cl)c6)O5)c5ccc(O)c(c5)-c5c(O)cc(O)cc5C(C(=O)O)NC4=O)OC(CO)C(O)C3O)OC(C)C2O)cc1 (stereo not drawn) [Example 81, N^van --( -p-butylbenzyl)vancomycin] | 0.125 (≈ 0.0783 µM) | 0.125 (≈ 0.0783 µM) | 0.06 (≈ 0.0376 µM) | 0.25 (≈ 0.157 µM) | 0.125 (≈ 0.0783 µM) | 0.06 (≈ 0.0376 µM) | 0.06 (≈ 0.0376 µM) | 0.06 (≈ 0.0376 µM) | 0.25 (≈ 0.157 µM) | 32 (≈ 20.1 µM) | 32 (≈ 20.1 µM) | > 128 | > 128 | > 128 | > 128 | > 128 | > 128 | 0.06 (≈ 0.0376 µM) | 0.74 | 1.16 | ED50 [21]: 1.26 mg/kg/2
2 | CCCCCCCCc1ccc(CNC2(C)CC(OC3C(Oc4c5cc6cc4Oc4ccc(cc4Cl)C(O)C4NC(=O)C(NC(=O)C6NC(=O)C(CC(N)=O)NC(=O)C(NC(=O)C(CC(C)C)NC)C(O)c6ccc(c(Cl)c6)O5)c5ccc(O)c(c5)-c5c(O)cc(O)cc5C(C(=O)O)NC4=O)OC(CO)C(O)C3O)OC(C)C2O)cc1 (stereo not drawn) [Example 93, N^van --( -p-octylbenzyl)vancomycin] | 1 (≈ 0.605 µM) | 1 (≈ 0.605 µM) | 0.5 (≈ 0.303 µM) | 2 (≈ 1.21 µM) | 1 (≈ 0.605 µM) | 0.25 (≈ 0.151 µM) | 0.25 (≈ 0.151 µM) | 0.25 (≈ 0.151 µM) | 0.5 (≈ 0.303 µM) | > 128 | > 128 | > 128 | > 128 | > 128 | > 128 | > 128 | > 128 | 0.5 (≈ 0.303 µM) | 0.19 | 0.62 | ED50 [21]: 0.23 mg/kg/2
3 | CNC(CC(C)C)C(=O)NC1C(=O)NC(CC(N)=O)C(=O)NC2C(=O)NC3C(=O)NC(C(=O)NC(C(=O)O)c4cc(O)cc(O)c4-c4cc3ccc4O)C(O)c3ccc(c(Cl)c3)Oc3cc2cc(c3OC2OC(CO)C(O)C(O)C2OC2CC(C)(NCc3ccc(O)cc3)C(O)C(C)O2)Oc2ccc(cc2Cl)C1O (stereo not drawn) [Example 105, N^van --( -p-hydroxybenzyl)vancomycin] | 0.5 (≈ 0.321 µM) | 0.5 (≈ 0.321 µM) | 0.5 (≈ 0.321 µM) | 1 (≈ 0.643 µM) | 0.5 (≈ 0.321 µM) | 0.5 (≈ 0.321 µM) | 0.06 (≈ 0.0386 µM) | 0.5 (≈ 0.321 µM) | 2 (≈ 1.29 µM) | 64 (≈ 41.1 µM) | 64 (≈ 41.1 µM) | > 128 | > 128 | > 128 | > 128 | > 128 | > 128 | 0.5 (≈ 0.321 µM) | 0.98 | 1.18 | ED50 [21]: 1.25 mg/kg/2
4 | CCN(CC)c1ccc(CNC2(C)CC(OC3C(Oc4c5cc6cc4Oc4ccc(cc4Cl)C(O)C4NC(=O)C(NC(=O)C6NC(=O)C(CC(N)=O)NC(=O)C(NC(=O)C(CC(C)C)NC)C(O)c6ccc(c(Cl)c6)O5)c5ccc(O)c(c5)-c5c(O)cc(O)cc5C(C(=O)O)NC4=O)OC(CO)C(O)C3O)OC(C)C2O)cc1 (stereo not drawn) [Example 77, N^van ( -p-diethylaminobenzyl)vancomycin] | 0.5 (≈ 0.31 µM) | 0.5 (≈ 0.31 µM) | 0.5 (≈ 0.31 µM) | 1 (≈ 0.621 µM) | 0.5 (≈ 0.31 µM) | 0.25 (≈ 0.155 µM) | 0.125 (≈ 0.0776 µM) | 0.5 (≈ 0.31 µM) | 1 (≈ 0.621 µM) | 128 (≈ 79.5 µM) | 128 (≈ 79.5 µM) | > 128 | > 128 | > 128 | > 128 | > 128 | > 128 | 0.25 (≈ 0.155 µM) | 1.1 | 0.8 | ED50 [21]: 1.2 mg/kg/2
5 | CCCCOc1ccc(CNC2(C)CC(OC3C(Oc4c5cc6cc4Oc4ccc(cc4Cl)C(O)C4NC(=O)C(NC(=O)C6NC(=O)C(CC(N)=O)NC(=O)C(NC(=O)C(CC(C)C)NC)C(O)c6ccc(c(Cl)c6)O5)c5ccc(O)c(c5)-c5c(O)cc(O)cc5C(C(=O)O)NC4=O)OC(CO)C(O)C3O)OC(C)C2O)cc1 (stereo not drawn) [Example 84, N^van --( -p-butoxybenzyl)vancomycin] | 0.125 (≈ 0.0776 µM) | 0.125 (≈ 0.0776 µM) | 0.125 (≈ 0.0776 µM) | 0.25 (≈ 0.155 µM) | 0.25 (≈ 0.155 µM) | 0.06 (≈ 0.0372 µM) | 0.03 (≈ 0.0186 µM) | 0.125 (≈ 0.0776 µM) | 0.25 (≈ 0.155 µM) | 32 (≈ 19.9 µM) | 64 (≈ 39.7 µM) | > 128 | > 128 | > 128 | > 128 | > 128 | > 128 | 0.125 (≈ 0.0776 µM) | 0.65 | 0.69 | ED50 [21]: 1.14 mg/kg/2
6 | CNC(CC(C)C)C(=O)NC1C(=O)NC(CC(N)=O)C(=O)NC2C(=O)NC3C(=O)NC(C(=O)NC(C(=O)O)c4cc(O)cc(O)c4-c4cc3ccc4O)C(O)c3ccc(c(Cl)c3)Oc3cc2cc(c3OC2OC(CO)C(O)C(O)C2OC2CC(C)(NCc3ccc(Br)cc3)C(O)C(C)O2)Oc2ccc(cc2Cl)C1O (stereo not drawn) [Example 80, N^van --( -p-bromobenzyl)vancomycin] | 0.5 (≈ 0.309 µM) | 0.25 (≈ 0.154 µM) | 0.25 (≈ 0.154 µM) | 1 (≈ 0.618 µM) | 0.5 (≈ 0.309 µM) | 0.25 (≈ 0.154 µM) | 0.03 (≈ 0.0185 µM) | 0.25 (≈ 0.154 µM) | 1 (≈ 0.618 µM) | 64 (≈ 39.5 µM) | 64 (≈ 39.5 µM) | > 128 | > 128 | > 128 | > 128 | > 128 | > 128 | 0.25 (≈ 0.154 µM) | 1.34 | 0.78 | ED50 [21]: 0.41 mg/kg/2
